Assay results taken from paper PMC12013366, “In vitro evaluation of the immunogenic potential of gramicidin S and its photocontrolled analogues” (RSC Medicinal Chemistry, 2025).
Non-standard residues stand in square brackets, D forms with d. Residues, ends and D or L forms follow the SMILES beside them. Orn = NCCC[C@H](N)C(=O)O

How the values were obtained:
[1] = tested on: calreticulin (CALR) on MDA-MB-231 cells; experiment: CALR exposure on the cell surface, fluorescence microscopy; type: cell-based, human; conditions: MDA-MB-231 monolayer; 8 and 16 μM; 24 h; Alexa Fluor 647 anti-CALR antibody, normalized to non-treated cells; n=2
Procedure: (§1) We performed fluorescence microscopy using an Alexa Fluor 647 anti-CALR antibody for quantifying the CALR exposure on the surface of cells. Confluent monolayer 4T1, HeLa, HepG2 and MDA-MB-231 cell cultures were incubated with GS and GS-derived peptides for 24 h followed by fixation, staining with the antibody and microscopic observation. Using the images, we calculated the total levels of the fluorescence signal per cell in each sample. […] To examine the time dependence of the CALR exposure, cytofluorimetric experiments were conducted on the MDA-MB-231 cell line (Fig. 9) using an Alexa Fluor 647 anti-CALR antibody. In this experiment, 30 min, 3 h, 6 h and 24 h were the time points for monitoring the fraction of cells expressing CALR on their surface.
(§2) The cells were seeded (10 000 cells per well for 4T1; 20 000 cells per well for HeLa and MDA-MB-231; 30 000 cells per well for HepG2) in 200 μL of appropriate medium in a 96-well black-wall transparent-bottom plate (6055302, Revvity). After 24 h incubation, the medium was aspired and 100 μL of fresh medium was added. The compounds (64, 32, 16 and 8 μM for closed photoforms; 32, 16, 8 and 4 μM for open photoforms and GS) along with the negative (1% DMSO) control were prepared in DMEM and dispensed in 100 μL per well for 24 h. Then 50 μL of 20% paraformaldehyde (28908, Thermo Fisher) was added for 15 min for fixation. […]

[2] = tested on: calreticulin (CALR) on HepG2 cells; experiment: as above; type: cell-based, human; conditions: HepG2 monolayer; 32 μM; 24 h; Alexa Fluor 647 anti-CALR antibody, normalized to non-treated cells; n=2
Procedure: as §1, §2

[3] = tested on: calreticulin (CALR) on 4T1 cells; experiment: as above; type: cell-based, murine; conditions: 4T1 monolayer; 8 and 16 μM; 24 h; Alexa Fluor 647 anti-CALR antibody, normalized to non-treated cells; n=2
Procedure: as §1, §2

[4] = tested on: membrane-bound CALR on MDA-MB-231 cells; experiment: CALR exposure, cytofluorimetric measurements; type: cell-based, human; conditions: concentrations higher than IC50 (16 and 32 μM), flow cytometry
Procedure: We performed fluorescence microscopy using an Alexa Fluor 647 anti-CALR antibody for quantifying the CALR exposure on the surface of cells. Confluent monolayer 4T1, HeLa, HepG2 and MDA-MB-231 cell cultures were incubated with GS and GS-derived peptides for 24 h followed by fixation, staining with the antibody and microscopic observation. Using the images, we calculated the total levels of the fluorescence signal per cell in each sample. […] While practically no enhancement in CALR exposure could be detected in the HeLa cell culture, a 4–7-fold enhancement is observed for HepG2 at 32 μM of GS, LMB002-open and LMB033-open. Then 8 and 16 μM of GS caused a 3-fold increase of CALR exposure in breast cancer cell lines 4T1 and MDA-MB-231. We noted no direct dose dependence of CALR release in our experiments. It may stem from the difference in the kinetics of CALR exposure. To examine the time dependence of the CALR exposure, cytofluorimetric experiments were conducted on the MDA-MB-231 cell line (Fig. 9) using an Alexa Fluor 647 anti-CALR antibody. In this experiment, 30 min, 3 h, 6 h and 24 h were the time points for monitoring the fraction of cells expressing CALR on their surface.
This is different from the release kinetics of ATP, which was released from the cytosol of the cells with compromised plasma membranes almost immediately after the treatment with our peptides. […]

`CC(C)C[C@@H]1NC(=O)[C@H](CCCN)NC(=O)[C@H](C(C)C)NC(=O)[C@@H]2CCCN2C(=O)[C@@H](Cc2ccccc2)NC(=O)[C@H](CC(C)C)NC(=O)[C@H](CCCN)NC(=O)[C@H](C(C)C)NC(=O)[C@@H]2CCCN2C(=O)[C@@H](Cc2ccccc2)NC1=O` [Gramicidin S, gramicidin S] (cyclo(V[Orn]L[dF]PV[Orn]L[dF]P)) was tested. Which “increase of CALR exposure” value [1] did it give?
The value was 3 fold.

And the “enhancement in CALR exposure” value [2]?
Its value is 4–7 fold.

And the “increase of CALR exposure” value [3]?
The value was 3 fold.

What about the “incubation time after which all cells exposed CALR on their surface” value [4] of the same compound?
The value was 3 h.
